Source: PMC10447463, “Data-mining unveils structure–property–activity correlation of viral infectivity enhancing self-assembling peptides” (Nature Communications, 2023)
Like-named read-outs stand apart in the source and are kept apart here.

Columns and labels:
[1] = type: physicochemical; parameters: key to Fibril / Fibril Formation / TEM 2cat / Fibril: 1 = fibrils present; 0 non-fibrillar structures; details: for Fibril / Fibril Formation: 1 mg/mL, uranyl acetate stain, qualitative
[2] = Conversion rate (CR) assay with fluorescamine; type: physicochemical; parameters: key to CR: % = 100−100×filtrate/original fluorescence intensity; details: conversion rate, fluorescamine assay; for CR / %: Fig. S7 panel B
Procedure: For ATR FT–IR spectroscopy measurements, 200 µL of the respective 1 mg/mL PNF solution was lyophilized and the resulting powder used for measurement. All spectra were recorded on a Bruker Tensor 27 spectrometer with a diamond crystal as ATR element (PIKE MiracleTM, spectral resolution 2 cm^-1). Every sample was measured with 64 scans. Data were analyzed with OriginLab software and calculation of β–sheet content was conducted according to a previous report. TEM. For TEM measurements 5 µL of PNF fibrils (1 mg/mL) were placed on copper grids coated with carbon and formvar layer (300 mesh, Plano GmbH). After 10 min incubation time, the grids were staining with 4% uranyl acetate solution for 2.5 min and washed with water. Measurements were performed on a Jeol 1400 electron microscope with 120 kV acceleration voltage. CR Assay. For the determination of the amount of peptide monomer converting into nanostructures the amine reactive dye fluorescamine was used analogous to a previous reported protocol. Briefly, 100 µL of the preformed PNF solution was centrifuged in a Vivaspin 500 tube (3 kDa MWCO) to separate fibers from free peptide monomer (16200 x g, 4 °C, 45 min). The filtrate and 100 μL of the non-filtered PNF sample were lyophilized and dissolved in 30 μL DMSO. 10 μL of the filtrate and non-filtered DMSO samples were submitted in a black UV Star® 384 microliter well–plates (Greiner bio–one) and 3 μL of the fluorescamine solution (10 mg/mL, DMSO) was added to measure the fluorescence enhancement. After 20 min of incubation at RT, fluorescence was recorded on an Infinite® M1000 PRO microplate reader (Tecan) at λem = 470 nm upon excitation at λex = 365 nm with 10 nm bandwidths and multiple reads per well (3×3). Measurements were repeated in triplicates and averaged with standard deviation. All values were calculated as n-fold fluorescence enhancement (DMSO only as a reference was set to 1). The conversion rate CR was defined according to the equation Eq. (3).3 CR=100−100×fluorescenceintensityfiltrate/fluorescenceintensityoriginal[%]

[3] = type: physicochemical; details: for ThT Cat. / ThT-Fluorescence (categorical): ThT-active if fluorescence at least twice the control
Procedure, shortened: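 Fibrils (1 mg/mL solution) were mixed with 50 µM ThT in PBS for 15 min at RT, and fluorescence was read at λex 440/λem 488 nm against a PBS blank, as a triplicate mean ± SD. Zeta potential came from electrophoretic mobility (Smoluchowski) after 1 d aggregation at 1 mg/mL in PBS pH 7.4, diluted into 1 mM KCl.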

[4] = Fig S10 panel D, fibril category by TEM
[5] = FigS12 panel A, fibril category by TEM
[6] = TEM, 1 = fibrils present, 0 = non-fibrillar
[7] = TEM, 1 = fibrils present, 0 = non-fibrillar structures
[8] = ThT fluorescence category, 1 if Rel. ThT >2
[9] = category: fibrils present or non-fibrillar

Substance | TEM 2cat [1, 4] | Fibril ([1]; Fig S10 panel E) | TEM 2cat [1, 5] | Fibril ([1]; FigS12 panel B, TEM) | Fibril / Fibril Formation ([1]; TEM) | Fibril [1, 6] | Fibril [1, 7] | CR / % [2] | CR [2] | Tht category (> 2 to blank = +) ([3]; Fig S10 panel D) | ThT Cat. ([3]; Fig S10 panel E) | Tht category (> 2 to blank = +) ([3]; FigS12 panel A) | ThT Cat, ([3]; FigS12 panel B) | ThT Cat, ([3]; ThT category, 1 if Rel. ThT >2) | ThT Cat. [3, 8] | ThT Cat. / ThT-Fluorescence (categorical) [3] | TEM 2cat [1, 9] | ThT Cat. ([3]; ThT category, 1 if Rel. ThT >2)
CSISIQI | 1 | 1 | 1 | 1 | 1 | 1 | 1 | 79.3% | 79.31 | 1 (ThT. Cat is 1, if Rel. ThT >2) | 1 (ThT. Cat is 1, if Rel. ThT >2) | 1 (ThT. Cat is 1, if Rel. ThT >2) | 1 (ThT. Cat is 1, if Rel. ThT >2) | 1 (ThT. Cat is 1, if Rel. ThT >2) | 1 (ThT. Cat is 1, if Rel. ThT >2) | 1 (ThT. Cat is 1, if Rel. ThT >2) | – | –
RGDKIKIQINM | 1 | 1 | – | – | 1 | 1 | 1 | 60.9% | 60.92 | 1 (ThT. Cat is 1, if Rel. ThT >2) | 1 (ThT. Cat is 1, if Rel. ThT >2) | – | – | 1 (ThT. Cat is 1, if Rel. ThT >2) | 1 (ThT. Cat is 1, if Rel. ThT >2) | 1 (ThT. Cat is 1, if Rel. ThT >2) | 1 | –
HHHHKIKIQINMYYYY | 1 | 1 | – | – | 1 | 1 | 1 | 98.4% | 98.42 | 1 (ThT. Cat is 1, if Rel. ThT >2) | 1 (ThT. Cat is 1, if Rel. ThT >2) | – | – | 1 (ThT. Cat is 1, if Rel. ThT >2) | 1 (ThT. Cat is 1, if Rel. ThT >2) | 1 (ThT. Cat is 1, if Rel. ThT >2) | 1 | –
KAKAKAQA | 0 | – | 0 | 0 | 0 | 0 | 0 | – | – | 0 (ThT-inactive (N-Fold <2)) | – | 0 (ThT-inactive (N-Fold <2)) | 0 (ThT-inactive (N-Fold <2)) | 0 (ThT-inactive (N-Fold <2)) | 0 (ThT-inactive (N-Fold <2)) | 0 (ThT-inactive (N-Fold <2)) | – | –
KFKFQFW | 1 | – | – | – | 1 | 1 | 1 | – | – | 1 (ThT. Cat is 1, if Rel. ThT >2) | – | – | – | 1 (ThT. Cat is 1, if Rel. ThT >2) | – | 1 (ThT. Cat is 1, if Rel. ThT >2) | 1 | 1 (ThT. Cat is 1, if Rel. ThT >2)
KIKIKIKIWWWW | 0 | – | – | – | 0 | 0 | 0 | – | – | 1 (ThT. Cat is 1, if Rel. ThT >2) | – | – | – | 1 (ThT. Cat is 1, if Rel. ThT >2) | 1 (ThT. Cat is 1, if Rel. ThT >2) | 1 (ThT. Cat is 1, if Rel. ThT >2) | 0 | –
MKIKIQINM | 1 | – | – | – | 1 | 1 | 1 | – | – | 0 (ThT-inactive (N-Fold <2)) | – | – | – | 0 (ThT-inactive (N-Fold <2)) | 0 (ThT-inactive (N-Fold <2)) | 0 (ThT-inactive (N-Fold <2)) | 1 | –
KFKFEFEF | 1 | – | 1 | 1 | 1 | 1 | 1 | – | – | 1 (ThT. Cat is 1, if Rel. ThT >2) | – | 1 (ThT. Cat is 1, if Rel. ThT >2) | 1 (ThT. Cat is 1, if Rel. ThT >2) | 1 (ThT. Cat is 1, if Rel. ThT >2) | 1 (ThT. Cat is 1, if Rel. ThT >2) | 1 (ThT. Cat is 1, if Rel. ThT >2) | – | –
